Data as given in the SangsterLogP compilation.

test: method code SF-HPLC, from DOI: 10.1002/(sici)1521-3838(199911)18:5<482::aid-qsar482>3.0.co;2-r; details: pH 6.4

Row | Compound | logD
1 | Cc1ccc(-n2c(Cn3ccc4cc([N+](=O)[O-])ccc43)n[nH]c2=S)cc1 | 3.17
2 | O=[N+]([O-])c1ccc2c(ccn2Cc2n[nH]c(=S)n2-c2ccccc2)c1 | 2.65
3 | Cc1[nH]c2ccccc2c1Cc1n[nH]c(=S)n1-c1ccccc1 | 2.55
4 | Cc1ccc(-n2c(Cn3ccc4ccccc43)n[nH]c2=S)cc1 | 3.2
5 | Cc1[nH]c2ccccc2c1Cc1nnc(Nc2ccccc2)s1 | 3.11
6 | S=c1[nH]nc(Cn2ccc3ccccc32)n1-c1ccccc1 | 2.68
7 | S=c1[nH]nc(Cn2ccc3cc(Br)ccc32)n1-c1cccc2ccccc12 | 3.88
8 | Cc1ccc(Nc2nnc(Cn3ccc4ccccc43)s2)cc1 | 3.99
9 | c1ccc2c(Nc3nnc(Cn4ccc5ccccc54)s3)cccc2c1 | 4.54
10 | Cc1ccc(-n2c(Cc3c(C)[nH]c4ccccc34)n[nH]c2=S)cc1 | 3
